The numbers were not newly measured in patent US20050042240A1, “High viscosity antibacterials” (priority 2002, published 2005), which cites them from elsewhere.

The conditions of this series: chronic catheter lock context.

As to `CC(C)O` [isopropyl alcohol], the “daily dose above which toxic symptoms can arise” value was greater than 500 mg.
